Patent US20230233513A1, “TAXIFOLIN FORMULATION COMPRISING THIAMINE” (Evanium Healthcare GmbH, priority 2020, published 2023)

How the values were obtained:
[1] = Screening of water-soluble polymers / alkylammonium cations: recrystallization of supersaturated taxifolin/β-CD complex solution; assay type: physicochemical; settings: taxifolin:choline/carnitine cations ratio 1:0.85, 96 h
Procedure: In order to examine which water-soluble polymers are particularly suitable for improving the stability and dissolution capacity of flavonoid-cyclodextrin complexes, a screening was carried out. For this purpose, first, a supersaturated taxifolin/β-CD complex solution was prepared by adding an excess of equimolar taxifolin/β-CD complex and subsequent heating to 35° C. and filtering off.

[2] = Stability examination taxifolin: color change of aqueous solutions; assay type: physicochemical; settings: stored open, protected from light, room temperature
Procedure: In order to investigate the stability of the flavonoid taxifolin and the influence of thiamine and β-CD, experiments were also carried out in this regard. Since taxifolin forms red-brown oligomers upon breakdown, the detection is quite straightforward to carry out. Method: Three aqueous solutions were prepared in beakers containing I) 100 mg taxifolin in 150 ml distilled water II) 100 mg of Taxifolin+13 mg of thiamine HCl in 150 ml distilled water and III) 100 mg taxifolin+13 mg of thiamine HCl+373 mg of β-CD in distilled water. Samples were stored open and protected from light at room temperature and the color of the solution was checked every 24 h.

SMILES | Recrystallization after 96 h [1] | Remark (change versus reference solution) [1] | Time of color change ([2]; aqueous solution) | Color of solution [2]
C[N+](C)(C)C[C@H](O)CC(=O)[O-].O=C(O)C(O)C(O)C(=O)O [L-Carnitine tartrate, L-carnitine tartrate] | Distinct | No change | – | –
O=C1c2c(O)cc(O)cc2O[C@H](c2ccc(O)c(O)c2)[C@H]1O [Taxifolin reference, taxifolin] | – | – | 48 h | Red-brown
